Reference: US8507548B2, “Method for treating addiction using quercetin-containing compositions” (Quercegen Pharmaceuticals LLC, priority 2008, dated 2013)

What was measured:
[1] = test system: withdrawal symptoms accompanied with addiction; conditions: e.g., alcohol abstinence-induced anxiety and convulsion; Joshi et al., J. Med. Food 2005; cited from earlier work
neuron cells = test: re-uptake of neurotransmitters by neuron cells; type: cell-based

In the case of O=c1c(O)c(-c2ccc(O)c(O)c2)oc2cc(O)cc(O)c12 [Quercetin], the “effect on withdrawal symptoms accompanied with addiction” value [1] is listed as “alleviate withdrawal symptoms” and the “re-uptake of neurotransmitters by neuron cells” value (neuron cells) is listed as “block re-uptake of neurotransmitters by neuron cells”.
